Test results published in patent US20110028448A1, “PYRIDINE COMPOUNDS” (priority 2008, published 2011).

Test system: circulating lymphocytes
Assay: Assessment of in vivo efficacy: circulating lymphocytes after oral administration
Set-up: species or system rat
Conditions: 6 h after oral administration of 10 mg/kg, normotensive male Wistar rats, compared to vehicle-treated group
Experimental: Assessment of In Vivo Efficacy
The efficacy of the compounds of Formula (I) is assessed by measuring the circulating lymphocytes after oral administration of 3 to 30 mg/kg of a compound of Formula (I) to normotensive male Wistar rats. The animals are housed in climate-controlled conditions with a 12 h-light/dark cycle, and have free access to normal rat chow and drinking water. Blood is collected before and 3, 6 and 24 h after drug administration. Full blood is subjected to hematology using Advia Hematology system (Bayer Diagnostics, Zürich, Switzerland).
All data are presented as mean±SEM. Statistical analyses are performed by analysis of variance (ANOVA) using Statistica (StatSoft) and the Student-Newman-Keuls procedure for multiple comparisons. The null hypothesis is rejected when p<0.05.

Compound	Lymphocyte counts [%]
CCc1cc(-c2nc(-c3cc(C)c(OC[C@@H](O)CNC(=O)CO)c(CC)c3)no2)cnc1N(CC)CC [Example 28, N-((S)-3-{4-[5-(6-Diethylamino-5-ethyl-pyridin-3-yl)-[1,2,4]oxadiazol-3-yl]-2-ethyl-6-methyl-phenoxy}-2-hydroxy-propyl)-2-hydroxy-acetamide]	−56
CCc1cc(-c2nc(-c3cc(C)c(OC[C@@H](O)CNC(=O)CO)c(CC)c3)no2)cnc1N1CCCC1 [Example 54, N-((S)-3-{2-Ethyl-4-[5-(5-ethyl-6-pyrrolidin-1-yl-pyridin-3-yl)-[1,2,4]oxadiazol-3-yl]-6-methyl-phenoxy}-2-hydroxy-propyl)-2-hydroxy-acetamide]	−57
CCc1cc(-c2noc(-c3cnc(N(CC)CC)c(C)c3)n2)cc(C)c1OC[C@@H](O)CNC(=O)CO [Example 8, N-((S)-3-{-4-[5-(6-Diethylamino-5-methyl-pyridin-3-yl)-[1,2,4]oxadiazol-3-yl]-2-ethyl-6-methyl-phenoxy}-2-hydroxy-propyl)-2-hydroxy-acetamide]	−66
CCc1cc(-c2nc(-c3cc(C)c(OC[C@H](O)CNC(=O)CO)c(CC)c3)no2)cnc1N(CC)CC [Example 27, N-((R)-3-{4-[5-(6-Diethylamino-5-ethyl-pyridin-3-yl)-[1,2,4]oxadiazol-3-yl]-2-ethyl-6-methyl-phenoxy}-2-hydroxy-propyl)-2-hydroxy-acetamide]	−55

Molecular target: recombinant human S1P1 receptor (Homo sapiens, UniProt P21453)
Assay: GTPγS assay to determine EC50 values
Format: biochemical
Conditions: not given
Experimental: GTPγS Assay to Determine EC50 Values
The pH is 7.4. Test compounds are dissolved and diluted in 100% DMSO and pre-incubated at room temperature for 30 min in 150 μl of the above assay buffer, in the absence of ^35S-GTPγS. After addition of 50 μl of ^35S-GTPγS, the assay is incubated for 1 h at rt. […] Membrane-bound ^35S-GTPγS is measured with a TopCount from Packard Biosciences.
Specific binding is determined by subtracting non-specific binding from maximal binding. Maximal binding is the amount of cpm bound to the Multiscreen plate in the presence of 10 μM of S1P. Non-specific binding is the amount of binding in the absence of an agonist in the assay.

Sequence of recombinant human S1P1 receptor (P21453 whole entry): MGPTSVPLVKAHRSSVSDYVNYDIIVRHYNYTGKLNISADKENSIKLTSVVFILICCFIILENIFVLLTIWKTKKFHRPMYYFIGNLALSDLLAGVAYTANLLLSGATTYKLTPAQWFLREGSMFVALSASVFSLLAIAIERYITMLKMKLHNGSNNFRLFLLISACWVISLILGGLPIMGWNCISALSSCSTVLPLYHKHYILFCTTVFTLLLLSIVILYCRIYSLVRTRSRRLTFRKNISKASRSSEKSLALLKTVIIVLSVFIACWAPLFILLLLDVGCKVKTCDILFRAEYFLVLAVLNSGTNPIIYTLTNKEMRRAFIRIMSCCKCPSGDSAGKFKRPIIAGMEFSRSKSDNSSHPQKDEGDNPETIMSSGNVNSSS

Compound	EC50 [nM]
CCc1cc(-c2nc(-c3cc(C)c(CCC(=O)NCCO)c(CC)c3)no2)cnc1N(C)C(C)C [Example 46, 3-(2-Ethyl-4-{5-[5-ethyl-6-(isopropyl-methyl-amino)-pyridin-3-yl]-[1,2,4]oxadiazol-3-yl}-6-methyl-phenyl)-N-(2-hydroxy-ethyl)-propionamide]	5

Same assay, conditions: 35S-GTPγS binding, membrane preparations of CHO cells expressing recombinant human S1P1 receptor; read-out: EC50

Compound	EC50 [nM]
CCN(CC)c1ncc(-c2nc(-c3ccc(OC[C@@H](O)CNC(=O)CO)cc3C)no2)cc1C [Example 58, N-((S)-3-{4-[5-(6-Diethylamino-5-methyl-pyridin-3-yl)-[1,2,4]oxadiazol-3-yl]-3-methyl-phenoxy}-2-hydroxy-propyl)-2-hydroxy-acetamide]	14
CCc1cc(-c2noc(-c3cnc(N(C)C(C)C)c(C)c3)n2)cc(C)c1OC[C@@H](O)CNC(=O)CO [Example 15, N-[(S)-3-(2-Ethyl-4-{5-[6-(isopropyl-methyl-amino)-5-methyl-pyridin-3-yl]-[1,2,4]oxadiazol-3-yl}-6-methyl-phenoxy)-2-hydroxy-propyl]-2-hydroxy-acetamide]	20
CCc1cc(-c2nnc(-c3cnc(N(CC)CC)c(C)c3)o2)cc(C)c1OC[C@@H](O)CNC(=O)CO [Example 68, N-((2S)-3-{4-[5-(6-Diethylamino-5-methyl-pyridin-3-yl)-[1,3,4]oxadiazol-2-yl]-2-ethyl-6-methyl-phenoxy}-2-hydroxy-propyl)-2-hydroxy-acetamide]	21.2

Second part, the molecule after the results:

EC50 [nM]	Compound
0.9	CCN(CC)c1ncc(-c2nc(-c3cc(C)c(OC[C@@H](O)CNC(=O)CO)c(C)c3)no2)cc1C [Example 55, N-((S)-3-{4-[5-(6-Diethylamino-5-methyl-pyridin-3-yl)-[1,2,4]oxadiazol-3-yl]-2,6-dimethyl-phenoxy}-2-hydroxy-propyl)-2-hydroxy-acetamide]
4	CCc1cc(-c2nc(-c3cc(C)c(CCC(=O)NCC(=O)O)c(CC)c3)no2)cnc1N(CC)CC [Example 44, (3-{4-[5-(6-Diethylamino-5-ethyl-pyridin-3-yl)-[1,2,4]oxadiazol-3-yl]-2-ethyl-6-methyl-phenyl}-propionylamino)-acetic acid]
3	CCc1cc(-c2noc(-c3cnc(N(C)CC)c(C)c3)n2)cc(C)c1OC[C@H](O)CNC(=O)CO [Example 6, N-[(R)-3-(2-Ethyl-4-{5-[6-(ethyl-methyl-amino)-5-methyl-pyridin-3-yl]-[1,2,4]oxadiazol-3-yl}-6-methyl-phenoxy)-2-hydroxy-propyl]-2-hydroxy-acetamide]
17	CCc1cc(-c2nc(-c3cc(C)c(OC[C@@H](O)CO)c(CC)c3)no2)cnc1N(C)C(C)C [Example 31, (S)-3-(2-Ethyl-4-{5-[5-ethyl-6-(isopropyl-methyl-amino)-pyridin-3-yl]-[1,2,4]oxadiazol-3-yl}-6-methyl-phenoxy)-propane-1,2-diol]
12	CCc1cc(-c2nc(-c3cc(C)c(OC[C@@H](O)CO)c(CC)c3)no2)cnc1N(CC)CC [Example 24, (S)-3-{4-[5-(6-Diethylamino-5-ethyl-pyridin-3-yl)-[1,2,4]oxadiazol-3-yl]-2-ethyl-6-methyl-phenoxy}-propane-1,2-diol]
5.2	CCN(CC)c1ncc(-c2nc(-c3cc(C)c(OC[C@@H](O)CO)c(Cl)c3)no2)cc1C [Example 63, (S)-3-{2-Chloro-4-[5-(6-diethylamino-5-methyl-pyridin-3-yl)-[1,2,4]oxadiazol-3-yl]-6-methyl-phenoxy}-propane-1,2-diol]
1.3	CCN(CC)c1ncc(-c2nc(-c3cc(C)c(OC[C@@H](O)CNC(=O)CO)c(Cl)c3)no2)cc1C [Example 56, N-((S)-3-{2-Chloro-4-[5-(6-diethylamino-5-methyl-pyridin-3-yl)-[1,2,4]oxadiazol-3-yl]-6-methyl-phenoxy}-2-hydroxy-propyl)-2-hydroxy-acetamide]
3	CCc1cc(-c2nc(-c3cc(C)c(OC[C@H](O)CNC(=O)CO)c(CC)c3)no2)cnc1N(C)C(C)C [Example 34, N-[(R)-3-(2-Ethyl-4-{5-[5-ethyl-6-(isopropyl-methyl-amino)-pyridin-3-yl]-[1,2,4]oxadiazol-3-yl}-6-methyl-phenoxy)-2-hydroxy-propyl]-2-hydroxy-acetamide]
8.9	CCN(CC)c1ncc(-c2nc(-c3cc(Cl)c(OC[C@@H](O)CO)c(OC)c3)no2)cc1C [Example 64, (S)-3-{2-Chloro-4-[5-(6-diethylamino-5-methyl-pyridin-3-yl)-[1,2,4]oxadiazol-3-yl]-6-methoxy-phenoxy}-propane-1,2-diol]

Same assay, conditions: 35S-GTPγS binding, membranes of CHO cells expressing human S1P1; read-out: EC50

EC50 [nM]	Compound
> 10000	CCc1cc(-c2noc(-c3cnc(N4CCCC4)c(C)c3)n2)cc(C)c1OC[C@@H](O)CN [Example 19]
> 10000	CCc1cc(-c2noc(-c3cnc(N4CCCC4)c(C)c3)n2)cc(C)c1OC[C@H](O)CN [Example 18]
